Reference: patent US10160755B2 (Plexxikon Inc., priority 2015, dated 2018)

Target: T1, BA/F3-FLT3-ITD + F691L cells (Homo sapiens, UniProt P36888, F691L, cells depend on it, form not given)
T1 sequence (P36888 1-993 F691L): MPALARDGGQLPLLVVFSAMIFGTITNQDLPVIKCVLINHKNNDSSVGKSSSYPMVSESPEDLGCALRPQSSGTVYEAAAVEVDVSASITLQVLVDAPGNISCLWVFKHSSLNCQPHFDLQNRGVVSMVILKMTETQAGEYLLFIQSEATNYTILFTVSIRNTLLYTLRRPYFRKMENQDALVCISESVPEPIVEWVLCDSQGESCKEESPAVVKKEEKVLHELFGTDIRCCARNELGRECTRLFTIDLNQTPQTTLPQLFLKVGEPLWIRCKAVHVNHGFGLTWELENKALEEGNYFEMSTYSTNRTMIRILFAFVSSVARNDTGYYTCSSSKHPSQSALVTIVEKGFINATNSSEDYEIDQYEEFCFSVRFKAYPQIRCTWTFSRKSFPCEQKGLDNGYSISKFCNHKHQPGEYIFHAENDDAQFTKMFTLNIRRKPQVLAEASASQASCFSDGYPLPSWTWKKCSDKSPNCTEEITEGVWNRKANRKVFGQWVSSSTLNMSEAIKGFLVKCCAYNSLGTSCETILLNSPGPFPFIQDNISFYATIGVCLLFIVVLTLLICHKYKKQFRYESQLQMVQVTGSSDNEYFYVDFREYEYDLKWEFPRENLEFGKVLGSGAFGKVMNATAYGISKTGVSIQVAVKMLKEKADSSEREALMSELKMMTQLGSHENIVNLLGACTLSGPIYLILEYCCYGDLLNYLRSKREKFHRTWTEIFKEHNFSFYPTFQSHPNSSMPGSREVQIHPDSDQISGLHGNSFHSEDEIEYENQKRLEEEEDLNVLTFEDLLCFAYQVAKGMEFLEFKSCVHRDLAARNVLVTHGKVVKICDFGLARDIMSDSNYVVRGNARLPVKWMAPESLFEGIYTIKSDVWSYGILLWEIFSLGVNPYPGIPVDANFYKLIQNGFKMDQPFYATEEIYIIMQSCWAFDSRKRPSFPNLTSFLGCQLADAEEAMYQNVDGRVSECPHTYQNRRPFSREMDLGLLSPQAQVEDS
Test: BA/F3-FLT3-ITD + F691L cell proliferation assay (CellTiter-Glo)
Format: cell-based, murine
Conditions: BaF3 FLT3 ITD/F691L cells; read-out: Cell Activity (IC50 μM) BaF3_FLT3_ITD/F691L
From the text: The FLT3 inhibitors may also be assessed using leukemia cell lines that express endogenous FLT3-ITD or cells that are engineered to express wild-type or mutant FLT3. The cells expressing endogenous FLT3 are dependent upon FLT3 catalytic activity for growth. For the engineered cells, murine BA/F3 cells were transfected with full-length FLT3 (either wild-type, or containing the ITD, D835Y, or F691L mutations, as noted). The parental BA/F3 cells are dependent upon Interleukin-3 (IL-3) for survival, and introduction of the FLT3 constructs renders these cells dependent upon FLT3 kinase activity when cultured in the absence of IL-3. Engineered BA/F3 cell growth assays can be performed in either the absence or presence of IL-3, to assess the compound inhibition of FLT3 or to detect the presence of off-target activity, respectively. Inhibitors of FLT3 kinase activity reduce or eliminate the FLT3 oncogenic signaling, resulting in reduced cell proliferation. This inhibition is measured as a function of compound concentration to assess IC50 values.
Cells were seeded at 1×10^4 cells per well of a 96 well cell culture plate in 50 μl of cell culture medium. Compounds were dissolved in DMSO, typically at a concentration of 5 mM and were serially diluted 1:3 for a total of eight points and added to the cells to final concentrations of 10, 3.3, 1.1, 0.37, 0.12, 0.041, 0.014 and 0.0046 μM in 100 μl cell culture medium (final concentration 0.2% DMSO). […] The cells were incubated at 37° C., 5% CO2 for three days. CellTiter-Glo Buffer (Promega Cell Viability Assay catalog #G7573) and substrate were equilibrated to room temperature, and enzyme/substrate Recombinant Firefly Luciferase/Beetle Luciferin was reconstituted. The cell plates were equilibrated to room temperature for 30 minutes, then lysed by addition of an equivalent volume of the Celltiter-Glo Reagent. The plate was mixed for 10 minutes on a plate shaker to lyse the cells. The plates were read on a Tecan M1000 using Luminescence protocol modified to read 0.1 s per well. The luminescence reading assesses the ATP content, which correlates directly with cell number such that the reading as a function of compound concentration was used to determine the IC50 value.

GI50, 1 to 10 µM:
FC(F)(F)Oc1cccc(C#Cc2cnc3[nH]cc(-c4ccc5ncn(C6CCCNC6)c5c4)c3n2)c1 (stereo not drawn) [P-246, 7-[3-(3-piperidyl)benzimidazol-5-yl]-2-[2-[3-(trifluoromethoxy)phenyl]ethynyl]-5H-pyrrolo[2,3-b]pyrazine]
CC(C)(C)n1cnc2ccc(-c3c[nH]c4ncc(C#Cc5cccc(OC(F)(F)F)c5)nc34)cc21 [P-249, 7-(3-tert-butylbenzimidazol-5-yl)-2-[2-[3-(trifluoromethoxy)phenyl]ethynyl]-5H-pyrrolo[2,3-b]pyrazine]

GI50, 0.0001 to 1 µM:
COc1cc(-c2cnc3[nH]cc(-c4ccc5ncn(C(C)(C)C)c5c4)c3c2)ccn1 [P-106, 1-tert-butyl-6-[5-(2-methoxy-4-pyridyl)-1H-pyrrolo[2,3-b]pyridin-3-yl]benzimidazole]
COc1cnc2[nH]cc(-c3cnc4ncn(Cc5cc(C)on5)c4c3)c2c1 [P-144, 3-[[6-(5-methoxy-1H-pyrrolo[2,3-b]pyridin-3-yl)imidazo[4,5-b]pyridin-1-yl]methyl]-5-methyl-isoxazole]
CC(C)n1cnc2ccc(-c3c[nH]c4ncc(-c5cnn(CC(F)(F)F)c5)cc34)cc21 [P-268, 1-isopropyl-6-[5-[1-(2,2,2-trifluoroethyl)pyrazol-4-yl]-1H-pyrrolo[2,3-b]pyridin-3-yl]benzimidazole]
COc1cnc2[nH]cc(-c3ccc4ncn(-c5ccc(F)cc5)c4c3)c2c1 [P-103, 1-(4-fluorophenyl)-6-(5-methoxy-1H-pyrrolo[2,3-b]pyridin-3-yl)benzimidazole]
CN(c1cccc(-c2cnc3[nH]cc(-c4ccc5ncn(C)c5c4)c3n2)c1)S(C)(=O)=O [P-150, N-methyl-N-[3-[7-(3-methylbenzimidazol-5-yl)-5H-pyrrolo[2,3-b]pyrazin-2-yl]phenyl]methanesulfonamide]
FC(F)(F)Cn1cc(-c2cnc3[nH]cc(-c4ccc5ncn(C6CCCNC6)c5c4)c3n2)cn1 (stereo not drawn) [P-258, 7-[3-(3-piperidyl)benzimidazol-5-yl]-2-[1-(2,2,2-trifluoroethyl)pyrazol-4-yl]-5H-pyrrolo[2,3-b]pyrazine]
CC(C)(C)n1cnc2ccc(-c3c[nH]c4ncc(-c5cccc(N6CCCCS6(=O)=O)c5)cc34)cc21 [P-221, 2-[3-[3-(3-tert-butylbenzimidazol-5-yl)-1H-pyrrolo[2,3-b]pyridin-5-yl]phenyl]thiazinane 1,1-dioxide]
N#Cc1cc(-c2cnc3[nH]cc(-c4ccc5ncn(C6CCCNC6)c5c4)c3c2)ccc1F (stereo not drawn) [P-208, 2-fluoro-5-[3-[3-(3-piperidyl)benzimidazol-5-yl]-1H-pyrrolo[2,3-b]pyridin-5-yl]benzonitrile]
CC(C)(C)n1cnc2ccc(-c3c[nH]c4ncc(-c5cnn(C(F)F)c5)nc34)cc21 [P-255, 7-(3-tert-butylbenzimidazol-5-yl)-2-[1-(difluoromethyl)pyrazol-4-yl]-5H-pyrrolo[2,3-b]pyrazine]
O=C(Nc1cccc(F)c1)c1cnc2[nH]cc(-c3ccc4ncn(C5CCCNC5)c4c3)c2c1 (stereo not drawn) [P-178, N-(3-fluorophenyl)-3-[3-(3-piperidyl)benzimidazol-5-yl]-1H-pyrrolo[2,3-b]pyridine-5-carboxamide]
CC(C)(C)n1cnc2ccc(-c3c[nH]c4ncc(-c5cccc(S(=O)(=O)N6CCCC6)c5)cc34)cc21 [P-220, 1-tert-butyl-6-[5-(3-pyrrolidin-1-ylsulfonylphenyl)-1H-pyrrolo[2,3-b]pyridin-3-yl]benzimidazole]
C#Cc1cnc2[nH]cc(-c3ccc4ncn(C(C)(C)C)c4c3)c2n1 [P-259, 7-(3-tert-butylbenzimidazol-5-yl)-2-ethynyl-5H-pyrrolo[2,3-b]pyrazine]
COc1cc(C(=O)Nc2cnc3[nH]cc(-c4ccc5ncn(C6CCCNC6)c5c4)c3c2)ccn1 (stereo not drawn) [P-247, 2-methoxy-N-[3-[3-(3-piperidyl)benzimidazol-5-yl]-1H-pyrrolo[2,3-b]pyridin-5-yl]pyridine-4-carboxamide]
